Series [1] has as its target T1, Inosine-5'-monophosphate dehydrogenase (Pseudomonas aeruginosa (strain ATCC 15692 / DSM 22644 / CIP 104116 / JCM14847 / LMG 12228 / 1C / PRS 101 / PAO1)) (UniProt Q9HXM5).
T1 sequence (whole entry): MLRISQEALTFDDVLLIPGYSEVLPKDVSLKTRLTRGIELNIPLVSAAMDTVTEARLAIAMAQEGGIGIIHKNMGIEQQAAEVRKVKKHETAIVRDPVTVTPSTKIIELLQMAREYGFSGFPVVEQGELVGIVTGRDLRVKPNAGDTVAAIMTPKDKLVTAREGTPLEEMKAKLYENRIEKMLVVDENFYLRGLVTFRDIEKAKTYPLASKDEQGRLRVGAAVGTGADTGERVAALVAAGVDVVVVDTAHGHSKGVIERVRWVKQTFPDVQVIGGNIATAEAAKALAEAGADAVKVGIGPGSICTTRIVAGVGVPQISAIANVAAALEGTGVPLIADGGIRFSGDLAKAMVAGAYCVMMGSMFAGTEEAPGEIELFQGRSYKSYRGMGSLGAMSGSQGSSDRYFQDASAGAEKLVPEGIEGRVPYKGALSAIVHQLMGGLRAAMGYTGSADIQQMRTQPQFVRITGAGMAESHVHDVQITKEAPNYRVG
Nature of the series: Competitive inhibition of Pseudomonas aeruginosa IMPDH using IMP as substrate and NAD+ in presence of varying ATP incubated for 70 secs.

Series [2] addresses T1, Inosine-5'-monophosphate dehydrogenase (Pseudomonas aeruginosa (strain ATCC 15692 / DSM 22644 / CIP 104116 / JCM14847 / LMG 12228 / 1C / PRS 101 / PAO1)). The experiment in a line: Inhibition of Pseudomonas aeruginosa IMPDH at 55.6 uM using IMP as substrate in the presence of NAD+ incubated for 70 secs relative to control.
The target is the same in series [3]. Nature of the series: Inhibition of Pseudomonas aeruginosa IMPDH assessed as Km for IMP at 10 uM using IMP as substrate in presence of 2 mM NAD+ and 0.2 mM MgATP (reference value: 483 +/- 65 microM).
Series [4] concerns the target T2, Inosine-5'-monophosphate dehydrogenase (Pseudomonas aeruginosa (strain ATCC 15692 / DSM 22644 / CIP 104116 / JCM14847 / LMG 12228 / 1C / PRS 101 / PAO1), UniProt Q9HXM5).
T2 sequence (Q9HXM5 whole entry): T1 sequence (whole entry)
Nature of the series: Inhibition of Pseudomonas aeruginosa IMPDH using IMP as substrate in the presence of NAD+ incubated for 70 secs.

The target in series [5] is T1, Inosine-5'-monophosphate dehydrogenase (Pseudomonas aeruginosa (strain ATCC 15692 / DSM 22644 / CIP 104116 / JCM14847 / LMG 12228 / 1C / PRS 101 / PAO1)). Nature of the series: Inhibition of Pseudomonas aeruginosa IMPDH at 49.8 uM using IMP as substrate in the presence of NAD+ incubated for 70 secs relative to control.
Series [6] has the same target. The experiment in a line: Inhibition of Pseudomonas aeruginosa IMPDH at 40.7 uM using IMP as substrate in the presence of NAD+ incubated for 70 secs relative to control.
The target is the same in series [7]. Nature of the series: Inhibition of Pseudomonas aeruginosa IMPDH at 37.1 uM using IMP as substrate in the presence of NAD+ incubated for 70 secs relative to control.
Series [8] shares this target. The experiment in a line: Inhibition of Pseudomonas aeruginosa IMPDH at 18.2 uM using IMP as substrate in the presence of NAD+ incubated for 70 secs relative to control.
For series [9] the target is unchanged. Nature of the series: Inhibition of Pseudomonas aeruginosa IMPDH at 41.5 uM using IMP as substrate in the presence of NAD+ incubated for 70 secs relative to control.
Series [10] shares this target. The experiment in a line: Competitive inhibition of Pseudomonas aeruginosa IMPDH using IMP as substrate at varying levels and NAD+ in presence of ATP incubated for 70 secs.
For series [11] the target is unchanged. The experiment in a line: Inhibition of Pseudomonas aeruginosa IMPDH at 35.1 uM using IMP as substrate in the presence of NAD+ incubated for 70 secs relative to control.
The target is the same in series [12]. The experiment in a line: Inhibition of Pseudomonas aeruginosa IMPDH at 46.2 uM using IMP as substrate in the presence of NAD+ incubated for 70 secs relative to control.
Series [13] has the same target. Nature of the series: Inhibition of Pseudomonas aeruginosa IMPDH assessed as Km for IMP at 20 uM using IMP as substrate in presence of 2 mM NAD+ and 0.2 mM MgATP (reference value: 483 +/- 65 microM).
Series [14] has the same target. The experiment in a line: Inhibition of Pseudomonas aeruginosa IMPDH at 57.4 uM using IMP as substrate in the presence of NAD+ incubated for 70 secs relative to control.
For series [15] the target is unchanged. The experiment in a line: Inhibition of Pseudomonas aeruginosa IMPDH at 54.6 uM using IMP as substrate in the presence of NAD+ incubated for 70 secs relative to control.
Compound in series [16]: CC(=O)N1CCOc2cc(S(=O)(=O)Nc3ccc(F)c(Cl)c3)ccc21
The experiment in a line: (§1) Inhibition of Pseudomonas aeruginosa IMPDH assessed as Vmax for IMP at 20 uM using IMP as substrate in presence of 2 mM NAD+ and 0.2 mM MgATP (reference value: 3.74 +/- 0.22 U/mg).

Compound in series [17]: CCOc1ccc(-c2cc(C(=O)O)nc3[nH]nc(-c4ccc(Cl)cc4)c23)cc1
Described as §1.

Compound in series [18]: N#CC1=C(N)Oc2[nH]c(=O)[nH]c(=O)c2C1c1ccc([N+](=O)[O-])cc1
The experiment in a line: (§2) Inhibition of Pseudomonas aeruginosa IMPDH assessed as Vmax for IMP at 10 uM using IMP as substrate in presence of 2 mM NAD+ and 0.2 mM MgATP (reference value: 3.74 +/- 0.22 U/mg).

Compound in series [19]: CC(=O)Nc1ccc(C2C3=C(Nc4c2c(=O)[nH]c(=O)n4Cc2ccccc2)c2ccccc2C3=O)cc1
The series is described as §2.

Calls of active or inactive are those of the source. The calls are words filed in the database; no cut-off is given here.

One may read the inhibition as the change of the read-out against control, counted positive when it falls. One may read the IC50 as the concentration that inhibits the measured activity by half.

Regarding `N#CC1=C(N)Oc2[nH]c(=O)[nH]c(=O)c2C1c1ccc([N+](=O)[O-])cc1` (stereo unspecified), the inhibition entry in [1] was “Active”. Also, the inhibition in series [2] stood at 87.8%. Moreover, the K0.5 in series [3] stood at 691 µM. Besides, the IC50 in series [4] (read-out: IC50) came to 7 µM.
Consider `COc1ccc(-n2c(=O)[nH]cc(C(=O)Nc3cc(C)ccc3C)c2=O)cc1`, for which the inhibition in series [5] was determined as 108%. The IC50 entry in series [4] is recorded as “Not Active”.
Turning to `O=C(O)c1cc(-c2cc(Br)ccc2F)c2c(-c3ccc(Cl)cc3)n[nH]c2n1`, the inhibition result in [1] is “Active”. In addition, the inhibition in series [6] came out at 71.6%. In addition, in series [4] (read-out: IC50), the IC50 is 7.4 µM.
Consider `CC(=O)Nc1ccc(C2C3=C(Nc4c2c(=O)[nH]c(=O)n4Cc2ccccc2)c2ccccc2C3=O)cc1` (stereo unspecified), for which the inhibition entry in [1] was “Active”. Besides, the K0.5 in series [3] stood at 1310 µM. For the same molecule, the inhibition in [7] came to 93.8%. Besides, the IC50 in series [4] (read-out: IC50) came out at 2.8 µM.
As to `COc1cc(-c2ccc(/N=N/c3ccc4c(S(=O)(=O)O)cc(S(=O)(=O)O)c(N)c4c3O)c(OC)c2)ccc1/N=N/c1ccc2c(S(=O)(=O)O)cc(S(=O)(=O)O)c(N)c2c1O` [CHICAGO SKY BLUE SODIUM], in [1], the inhibition entry was “Active”. Moreover, in [8], the inhibition turned out to be 92.2%. Besides, the IC50 in series [4] (read-out: IC50) is 1.6 µM.
On to `COc1ccc(Br)cc1-c1cc(C(=O)O)nc2[nH]nc(-c3ccc(C)cc3)c12`, for which the inhibition in series [9] turned out to be 79.9%. In [1], the inhibition result is “Active”. The half-maximal inhibitory concentration (IC50) in [4] (read-out: IC50) was 11.7 µM.
In the case of `Cc1cc2c(C(C)C)c(O)c(O)c(C=O)c2c(O)c1-c1c(C)cc2c(C(C)C)c(O)c(O)c(C=O)c2c1O` [GOSSYPOL], in series [10], the inhibition result was “Active”. Moreover, the IC50 in [4] (read-out: IC50) was 0.9 µM. Further, the inhibition in series [11] amounted to 100%.
With `CCOc1ccc(-c2cc(C(=O)O)nc3[nH]nc(-c4ccc(Cl)cc4)c23)cc1`, the inhibition result in series [1] was “Active”. Moreover, the inhibition in series [12] came out at 73%. Also, the K0.5 in series [13] is 616 µM. In [4] (read-out: IC50), the IC50 was found to be 18.3 µM.
Regarding `N#CC1=C(N)Oc2[nH]c(=O)[nH]c(=O)c2C1c1ccc(Cl)cc1` (stereo unspecified), in series [1], the inhibition entry is “Active”. Further, the inhibition in series [14] was determined as 89.3%. For the same molecule, in series [4] (read-out: IC50), the IC50 came to 4 µM.
For `N#CC1=C(N)Oc2[nH]c(=O)[nH]c(=O)c2C1c1ccc([N+](=O)[O-])s1` (stereo unspecified), the inhibition entry in series [1] is “Active”. The inhibition in series [15] was determined as 85.7%. Besides, the IC50 in [4] (read-out: IC50) was determined as 4 µM.

B1: Inosine-5'-monophosphate dehydrogenase (Pseudomonas aeruginosa (strain ATCC 15692 / DSM 22644 / CIP 104116 / JCM14847 / LMG 12228 / 1C / PRS 101 / PAO1)), … (protein)
chain: T1 sequence (whole entry)
Regarding B1, the Vmax in [16] is 2.81 U/mg; in [17] it was 3.14 U/mg; in series [18], 3.64 U/mg; in series [19], 3.34 U/mg.

The values above are taken from ChEMBL document CHEMBL4433199, “First-in-class allosteric inhibitors of bacterial IMPDHs” (Eur J Med Chem, 2019).
